Reference: PubChem BioAssay (NCI)
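Briefly, cells in 96-well plates were exposed to five compound concentrations for 48 h, and endpoints were estimated by linear interpolation. GI50: concentration for 50% inhibition of growth. TGI denotes the concentration required for complete inhibition of growth.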

Tests used:
Assay in all cases: growth of human tumour cells (NCI), 48 h
SW-620 colon = test system: SW-620 colon
A549 NSCLC = test system: A549 NSCLC
RXF 393 renal = test system: RXF 393 renal
SK-MEL-2 melanoma = test system: SK-MEL-2 melanoma
UACC-62 melanoma = test system: UACC-62 melanoma
786-0 renal = test system: 786-0 renal
NCI-H522 lung = test system: NCI-H522 lung
TK-10 renal = test system: TK-10 renal
HCT-15 colon = test system: HCT-15 colon
CAKI-1 renal = test system: CAKI-1 renal

Row | Structure (SMILES) | TGI (SW-620 colon) | TGI (A549 NSCLC) | TGI (RXF 393 renal) | TGI (SK-MEL-2 melanoma) | TGI (UACC-62 melanoma) | TGI (786-0 renal) | TGI (NCI-H522 lung) | TGI (TK-10 renal) | TGI (HCT-15 colon) | GI50 (SW-620 colon) | GI50 (CAKI-1 renal) | TGI (CAKI-1 renal) | GI50 (RXF 393 renal) | GI50 (SK-MEL-2 melanoma) | GI50 (UACC-62 melanoma) | GI50 (786-0 renal) | GI50 (NCI-H522 lung) | GI50 (TK-10 renal) | GI50 (HCT-15 colon) | GI50 (A549 NSCLC)
1 | O=C(NCC(=O)N1CCOC1=O)OCc1ccccc1 | > 100 µM | > 100 µM | > 100 µM | > 100 µM | > 100 µM | > 100 µM | > 100 µM | > 100 µM | > 100 µM | – | – | – | – | – | – | – | – | – | – | –
2 | Cc1cc(C)nc(NS(=O)(=O)c2ccc(NC(=O)c3cccn4c(=O)c5ccccc5nc34)cc2)n1 | > 100 µM | > 100 µM | 67.4 µM | > 100 µM | 51.9 µM | > 100 µM | 42.6 µM | > 100 µM | > 100 µM | – | – | – | – | – | – | – | – | – | – | –
3 | CCCCCCCCCCCCCP(=O)(NCC(N)=O)OCC (centres undefined) | 41 µM | 40.7 µM | 37.7 µM | 30.3 µM | 33 µM | 29 µM | – | 37.4 µM | 36 µM | – | – | – | – | – | – | – | – | – | – | –
4 | CC(=O)OC(C)C(OC(C)=O)C(OC(C)=O)C(/C=C/C1CC=CC(=O)O1)OC(C)=O (centres undefined) | 46.3 µM | – | 73.4 µM | > 100 µM | 67.8 µM | > 100 µM | 60.3 µM | > 100 µM | > 100 µM | 16.1 µM | 43.3 µM | > 100 µM | 21.3 µM | 35.9 µM | 25.4 µM | 37.8 µM | 22.9 µM | 40.6 µM | 32.2 µM | –
5 | O=C(Nc1cnc(C(F)(F)F)cn1)c1cc(Cl)ccc1O | > 100 µM | > 100 µM | 0.922 µM | 0.84 µM | 1.48 µM | 15.9 µM | 0.768 µM | > 100 µM | 3.24 µM | 0.348 µM | – | – | 0.318 µM | 0.271 µM | 0.191 µM | 0.356 µM | 0.178 µM | 0.465 µM | 0.307 µM | 0.377 µM
6 | CC1(C)CC2=C(Sc3ccccc3N2)C(=O)C1C(=O)C(=O)Nc1cc(Cl)ccc1Cl (centres undefined) | > 100 µM | > 100 µM | > 100 µM | > 100 µM | > 100 µM | > 100 µM | > 100 µM | – | > 100 µM | – | – | > 100 µM | – | – | – | – | – | – | – | –
7 | COc1cc(/C=C\c2ccncc2)cc(OC)c1OC | > 100 µM | > 100 µM | > 100 µM | – | > 100 µM | > 100 µM | > 100 µM | > 100 µM | > 100 µM | – | – | > 100 µM | – | – | – | – | – | – | – | –
8 | Cc1oc2c(c1C(=O)N1CC[C@@H](N)C1)C(=O)c1c(c(O)c3ccccc3c1O)C2=O | 7.28 µM | – | 11.3 µM | 23.9 µM | 19.6 µM | 17.3 µM | 4.77 µM | 16.3 µM | 11.9 µM | 1.08 µM | 0.611 µM | 11.4 µM | 2.53 µM | 11 µM | 4.46 µM | 3.93 µM | 1.39 µM | 3.07 µM | 1.49 µM | –
9 | Cc1c2ccncc2c(C)c2c1c1cc(CO)ccc1n2C | 10.9 µM | 2.81 µM | 1.7 µM | 2.54 µM | 1.76 µM | 5.07 µM | 3.81 µM | 1.91 µM | 10 µM | 0.297 µM | – | – | 0.41 µM | 0.819 µM | 0.287 µM | 0.596 µM | 0.661 µM | 0.378 µM | 0.354 µM | 0.416 µM
10 | COc1cc(C2CC(=O)Nc3c2cc(Br)c2ccccc32)cc(Br)c1OC (centres undefined) | > 100 µM | – | 3.93 µM | 27.2 µM | > 100 µM | 3.79 µM | – | – | > 100 µM | 0.53 µM | – | – | 1.73 µM | 3.67 µM | 1.64 µM | 1.76 µM | – | – | 0.907 µM | –
11 | O=C(O)COc1ccc(C(=O)/C(SS/C(C(=O)c2ccc(OCC(=O)O)c(Cl)c2Cl)=C2\C=C(c3ccc(Br)cc3)SS2)=C2/C=C(c3ccc(Br)cc3)SS2)c(Cl)c1Cl | 31.2 µM | > 100 µM | – | 33.7 µM | 19.3 µM | > 45.3 µM | 3.95 µM | > 100 µM | > 40.9 µM | – | – | 99.4 µM | – | – | – | – | – | – | – | –
12 | COc1ccc(-c2ccc(/C=N/n3c(COc4ccccc4Cl)n[nH]c3=S)o2)c([N+](=O)[O-])c1 | – | 87.9 µM | 52.1 µM | – | – | > 100 µM | > 100 µM | 39.5 µM | 89.2 µM | – | 24.6 µM | 59.3 µM | 15.5 µM | – | – | 28.4 µM | 49 µM | 13.2 µM | 26.5 µM | 30.4 µM
13 | COc1ccc(Oc2ccccc2NC(=O)CNC(=O)c2cccc3ccccc23)cc1 | > 25 µM | > 25 µM | > 25 µM | – | > 25 µM | > 25 µM | > 25 µM | > 25 µM | > 25 µM | 0.678 µM | – | – | 0.494 µM | – | 0.559 µM | 1.14 µM | 0.193 µM | 2.15 µM | 0.59 µM | 1.25 µM
14 | O=C(O)[C@@H](NS(=O)(=O)c1ccc2ccccc2c1)c1ccccc1 | – | – | > 100 µM | > 100 µM | > 100 µM | > 100 µM | > 100 µM | – | > 100 µM | – | – | > 100 µM | – | – | – | – | – | – | – | –
15 | CCC1C(=O)OCc2c1cc1n(c2=O)C(CC)c2c-1nc1ccccc1c2Cl (centres undefined) | > 100 µM | > 100 µM | – | 65.4 µM | > 100 µM | 33.9 µM | 35 µM | > 100 µM | > 100 µM | – | – | > 100 µM | – | – | – | – | – | – | – | –
16 | N/C(=N\c1nc2ccccc2s1)NC(=NC1CCCCC1)NC1CCCCC1 | 3.33 µM | – | 2.86 µM | 3.47 µM | 3.01 µM | 3.23 µM | 4.22 µM | 3.28 µM | 2.93 µM | 1.65 µM | 1.53 µM | 2.89 µM | 1.46 µM | 1.78 µM | 1.61 µM | 1.65 µM | 1.89 µM | 1.64 µM | 1.47 µM | –
17 | COc1ccc2c(c1)C(=O)c1c-2c(N2CCNCC2)nc2ccccc12 | 2.6 µM | 15.8 µM | – | 21.2 µM | 12.1 µM | 13.3 µM | 17 µM | 23.6 µM | 11.8 µM | 1.32 µM | 11.5 µM | 30.3 µM | – | 4.62 µM | 3.55 µM | 3.17 µM | 3.95 µM | 8.36 µM | 3.44 µM | 3.3 µM
